{"source": "patent US20210093626A1", "about": "(priority 2018, published 2021)", "key": {"[1]": {"test_system": "N2a, ScN2a, GT1, ScGT1 cells"}, "[2]": {"test_system": "PrP^Sc in GT1 cells chronically infected with RML prion (ScGT1)", "assay_type": "cell-based, mouse", "conditions": "drug 20 μM, 4 days, vs vehicle control, densitometry normalized to β-actin"}, "[3]": {"test_system": "PrP^Sc in GT1 cells chronically infected with 22L prion strain (ScGT1 22L)", "assay_type": "cell-based, mouse", "conditions": "ScGT1 cells infected with 22L prion strain, drug 20 μM, 4 days, vs vehicle control"}, "[4]": {"test_system": "PrP^Sc in N2a cells chronically infected with RML prion strain (ScN2a)", "assay_type": "cell-based, mouse"}}}
{"compound": "Nc1c(C(=O)c2c[nH]c3ccccc23)cnn1-c1ccccc1", "note": "[Compound 3, (5-Amino-1-phenyl-1H-pyrazol-4-yl)-(1H-indol-3-yl)-methanone]", "values": [{"measurement": "citotoxicity assessment", "setting": "[1]", "value": "discarded"}]}
{"compound": "Nc1c(C(=O)C2CCNCC2)cnn1-c1ccc(OC(F)(F)F)cc1", "note": "[Compound 5, [5-Amino-1-(4-trifluoromethoxy-phenyl)-1H-pyrazol-4-yl]-piperidin-4-yl-methanone]", "values": [{"measurement": "reduction of PrP^Sc accumulation/levels", "setting": "[2]", "value": "about 60%"}, {"measurement": "reduction of PrP^Sc levels", "setting": "[3]", "value": 35, "unit": "%"}, {"measurement": "reduction in PrP^Sc levels", "setting": "[4]; RML-infected ScN2a cells, drug 20 μM, 4 days, vs vehicle control", "value": 60, "unit": "%"}, {"measurement": "PrP^Sc reduction with compound dissolved in different drug vehicles", "setting": "[4]; ScN2a cells, vehicles PBS, H2O, NaCl and DMSO", "value": "able to reduce PrP^Sc in all drug vehicles tested"}]}
{"compound": "Nc1c(C(=O)c2ccc[nH]2)cnn1-c1ccc(F)cc1", "note": "[Compound G]", "values": [{"measurement": "reduction of PrP^Sc accumulation/levels", "setting": "[2]", "value": "about 50%"}]}
